Values after ≈ are worked out from the molar mass of the structure shown.
Tests used:
[1] = test system: methicillin-sensitive Staphylococcus aureus; assay: MIC by broth micro-dilution (CLSI), methicillin-sensitive S. aureus; assay type: cell-based; details: Staphylococcus aureus, ATCC 29213 / MSSA, MSSA S. aureus ATCC29213; read-out: MIC
[2] = test system: carbapenem sensitive Escherichia coli; assay: MIC by broth micro-dilution (CLSI), carbapenem sensitive E. coli; assay type: cell-based; details: Escherichia coli, ATCC25922, ESBL −ve E. coli ATCC25922; read-out: MIC
[3] = test system: carbapenemase producing K. pneumoniae; assay: MIC by broth micro-dilution (CLSI), carbapenemase producing K. pneumoniae; assay type: cell-based, Klebsiella pneumoniae; details: Klebsiella pneumoniae, ATCCBAA1705, KPC-2 K. pneumoniae ATCC BAA-1705; read-out: MIC
[4] = test system: carbapenem sensitive Pseudomonas aeruginosa; assay: MIC by broth micro-dilution (CLSI), carbapenem sensitive P. aeruginosa; assay type: cell-based; details: Pseudomonas aeruginosa, ATCC27853, Meropenem susceptible P. aeruginosa ATCC27853; read-out: MIC

Row | MIC [1] [µg/mL] | MIC [2] [µg/mL] | MIC [3] [µg/mL] | MIC [4] [µg/mL] | Compound
1 | 2 (≈ 3.39 µM) | 0.25 (≈ 0.423 µM) | 1 (≈ 1.69 µM) | 1 (≈ 1.69 µM) | C[C@@H](NC(=O)Cn1cnnn1)[C@H]1C(=O)N2C(C(=O)O)=C(S[C@@H]3CN[C@H](C(=O)N4CCN(CCCN)CC4)C3)[C@H](C)[C@H]12 [Example 445, (4R,5S,6R)-6-((R)-1-(2-(1H-tetrazol-1-yl)acetamido)ethyl)-3-((3S,5S)-5-(4-(3-aminopropyl)piperazine-1-carbooyl)pyrrolidin-3-ylthio)-4-methyl-7-oxo-1-azabicyclo[3.2.0]hept-2-ene-2-carboxylic acid]
2 | 2 (≈ 3.16 µM) | 0.25 (≈ 0.395 µM) | 1 (≈ 1.58 µM) | 4 (≈ 6.32 µM) | C[C@@H](NC(=O)Cn1cnnn1)[C@H]1C(=O)N2C(C(=O)O)=C(S[C@@H]3CN[C@H](C(=O)N4CCN(C(=O)CNC(=N)N)CC4)C3)[C@H](C)[C@H]12 [Example 446, (4R,5S,6R)-6-((R)-1-(2-(1H-tetrazol-1-yl)acetamido)ethyl)-3-((3S,5S)-5-(4-(2-guanidinoacetyl)piperazine-1-carbonyl)pyrrolidin-3-ylthio)-4-methyl-7-oxo-1-azabicyclo[3.2.0]hept-2-ene-2-carboxylic acid]
3 | 16 (≈ 24.8 µM) | 0.5 (≈ 0.774 µM) | 4 (≈ 6.19 µM) | 16 (≈ 24.8 µM) | C[C@@H](NC(=O)Cn1cnnn1)[C@H]1C(=O)N2C(C(=O)O)=C(S[C@@H]3CN[C@H](C(=O)N4C[C@H](N)C[C@H]4C(=O)N4CC[C@@H](N)C4)C3)[C@H](C)[C@H]12 [Example 447, (4R,5S,6R)-6-((R)-1-(2-(1H-tetrazol-1-yl)acetamido)ethyl)-3-((3S,5S)-5-((2S,4R)-4-amino-2-((R)-3-aminopyrrolidine-1-carbonyl)pyrrolidine-1-carbonyl)pyrrolidin-3-ylthio)-4-methyl-7-oxo-1-azabicyclo[3.2.0]hept-2-ene-2-carboxylic acid]
4 | 4 (≈ 6.67 µM) | 0.5 (≈ 0.834 µM) | 8 (≈ 13.3 µM) | > 128 | C[C@@H](NC(=O)Cn1cnnn1)[C@H]1C(=O)N2C(C(=O)O)=C(S[C@@H]3CN[C@H](C(=O)N4CCC(n5nccn5)CC4)C3)[C@H](C)[C@H]12 [Example 448, (4R,5S,6R)-6-((R)-1-(2-(1H-tetrazol-1-yl)acetamido)ethyl)-3-((3S,5S)-5-(4-(2H-1,2,3-triazol-2-yl)piperidine-1-carbooyl)pyrrolidin-3-ylthio)-4-methyl-7-oxo-1-azabicyclo[3.2.0]hept-2-ene-2-carboxylic acid]
5 | 4 (≈ 8.36 µM) | 0.5 (≈ 1.04 µM) | 4 (≈ 8.36 µM) | 64 (≈ 134 µM) | C[C@@H](NC(=O)Cn1cnnn1)[C@H]1C(=O)N2C(C(=O)O)=C(S[C@H]3CCN(C(=O)CN)C3)[C@H](C)[C@H]12 [Example 449, (4R,5S,6R)-6-((R)-1-(2-(1H-tetrazol-1-yl)acetamido)ethyl)-3-((S)-1-(2-aminoacetyl)pyrrolidin-3-ylthio)-4-methyl-7-oxo-1-azabicyclo[3.2.0]hept-2-ene-2-carboxylic acid]
6 | 8 (≈ 13.2 µM) | 0.25 (≈ 0.412 µM) | 1 (≈ 1.65 µM) | 1 (≈ 1.65 µM) | C[C@@H](NC(=O)Cn1cnnn1)[C@H]1C(=O)N2C(C(=O)O)=C(S[C@@H]3CN[C@H](C(=O)N4CCN(C[C@H](O)CN)CC4)C3)[C@H](C)[C@H]12 [Example 450, (4R,5S,6R)-6-((R)-1-(2-(1H-tetrazol-1-yl)acetamido)ethyl)-3-((3S,5S)-5-(4-((R)-3-amino-2-hydroxypropyl)piperazine-1-carbonyl)pyrrolidin-3-ylthio)-4-methyl-7-oxo-1-azabicyclo[3.2.0]hept-2-ene-2-carboxylic acid]
7 | 8 (≈ 12.4 µM) | 0.25 (≈ 0.387 µM) | 1 (≈ 1.55 µM) | 2 (≈ 3.1 µM) | C[C@@H](NC(=O)Cn1cnnn1)[C@H]1C(=O)N2C(C(=O)O)=C(S[C@@H]3CN[C@H](C(=O)N4CCN(CCN5CCNCC5)CC4)C3)[C@H](C)[C@H]12 [Example 451, (4R,5S,6R)-6-((R)-1-(2-(1H-tetrazol-1-yl)acetamido)ethyl)-3-methyl-7-oxo-3-((3S,5S)-5-(4-(2-(piperazin-1-yl)ethyl)piperazine-1-carbonyl)pyrrolidin-3-ylthio)-1-azabicyclo[3.2.0]hept-2-ene-2-carboxylic acid]
8 | 16 (≈ 27.7 µM) | 0.125 (≈ 0.216 µM) | 2 (≈ 3.46 µM) | 8 (≈ 13.8 µM) | C[C@@H](NC(=O)Cn1cnnn1)[C@H]1C(=O)N2C(C(=O)O)=C(S[C@@H]3CN[C@H](C(=O)N4C[C@H](N)C[C@H]4C(=O)O)C3)[C@H](C)[C@H]12 [Example 453, (4R,5S,6R)-6-((R)-1-(2-(1H-tetrazol-1-yl)acetamido)ethyl)-3-((3S,5S)-5-((2S,4R)-4-amino-2-carboxypyrrolidine-1-carbonyl)pyrrolidin-3-ylthio)-4-methyl-7-oxo-1-azabicyclo[3.2.0]hept-2-ene-2-carboxylic acid]
9 | 8 (≈ 12.5 µM) | 0.5 (≈ 0.779 µM) | 4 (≈ 6.23 µM) | 4 (≈ 6.23 µM) | C[C@@H](NC(=O)Cn1cnnn1)[C@H]1C(=O)N2C(C(=O)O)=C(S[C@@H]3CN[C@H](C(=O)N4C[C@@H](N)C[C@H]4CNS(N)(=O)=O)C3)[C@H](C)[C@H]12 [Example 454, (4R,5S,6R)-6-((R)-1-(2-(1H-tetrazol-1-yl)acetamido)ethyl)-3-((3S,5S)-5-((2S,4S)-4-amino-2-((sulfamoylamino)-methyl)pyrrolidine-1-carbonyl)pyrrolidin-3-ylthio)-4-methyl-7-oxo-1-azabicyclo[3.2.0]hept-2-ene-2-carboxylic acid]
10 | 4 (≈ 6.23 µM) | 0.5 (≈ 0.779 µM) | 2 (≈ 3.12 µM) | 4 (≈ 6.23 µM) | C[C@@H](NC(=O)Cn1cnnn1)[C@H]1C(=O)N2C(C(=O)O)=C(S[C@@H]3CN[C@H](C(=O)N4C[C@H](N)C[C@H]4CNS(N)(=O)=O)C3)[C@H](C)[C@H]12 [Example 455, (4R,5S,6R)-6-((R)-1-(2-(1H-tetrazol-1-yl)acetamido)ethyl)-3-((3S,5S)-5-((2S,4R)-4-amino-2-((sulfamoylamino)methyl)pyrrolidine-1-carbonyl)pyrrolidin-3-ylthio)-4-methyl-7-oxo-1-azabicyclo[3.2.0]hept-2-ene-2-carboxylic acid]
11 | 2 (≈ 3.23 µM) | 0.5 (≈ 0.807 µM) | 2 (≈ 3.23 µM) | 2 (≈ 3.23 µM) | C[C@@H](NC(=O)Cn1cnnn1)[C@H]1C(=O)N2C(C(=O)O)=C(S[C@@H]3CN[C@H](C(=O)N4CCN(C(=O)[C@@H](N)CN)CC4)C3)[C@H](C)[C@H]12 [Example 456, (4R,5S,6R)-6-((R)-1-(2-(1H-tetrazol-1-yl)acetamido)ethyl)-3-((3S,5S)-5-(4-((S)-2,3-diaminopropanoyl)piperazine-1-carbonyl)pyrrolidin-3-ylthio)-4-methyl-7-oxo-1-azabicyclo[3.2.0]hept-2-ene-2-carboxylic acid]
12 | 2 (≈ 3.3 µM) | 0.25 (≈ 0.413 µM) | 1 (≈ 1.65 µM) | 1 (≈ 1.65 µM) | C[C@@H](NC(=O)Cn1cnnn1)[C@H]1C(=O)N2C(C(=O)O)=C(S[C@@H]3CN[C@H](C(=O)N4CCN(C[C@H](N)CN)CC4)C3)[C@H](C)[C@H]12 [Example 457, (4R,5S,6R)-6-((R)-1-(2-(1H-tetrazol-1-yl)acetamido)ethyl)-3-((3S,5S)-5-(4-((R)-2,3-diaminopropyl)piperazine-1-carbonyl)pyrrolidin-3-ylthio)-4-methyl-7-oxo-1-azabicyclo[3.2.0]hept-2-ene-2-carboxylic acid]
13 | 16 (≈ 32.4 µM) | 0.5 (≈ 1.01 µM) | 1 (≈ 2.03 µM) | 16 (≈ 32.4 µM) | C[C@@H](NC(=O)CN1CCCC1)[C@H]1C(=O)N2C(C(=O)O)=C(S[C@@H]3CN[C@H](C(=O)N(C)C)C3)[C@H](C)[C@H]12 [Example 458, (4R,5S,6R)-3-((3S,5S)-5-(dimethylcarbamoyl)pyrrolidin-3-ylthio)-4-methyl-7-oxo-6-((R)-1-(2-(pyrrolidin-1-yl)acetamido)ethyl)-1-azabicyclo[3.2.0)hept-2-eoe-2-carboxylic acid]
14 | 4 (≈ 7.1 µM) | 0.5 (≈ 0.887 µM) | 2 (≈ 3.55 µM) | 4 (≈ 7.1 µM) | C[C@@H](NC(=O)Cn1cnnn1)[C@H]1C(=O)N2C(C(=O)O)=C(S[C@@H]3CN[C@H](C(=O)N4CCO[C@H](CN)C4)C3)[C@H](C)[C@H]12 [Example 460, (4R,5S,5R)-6-((R)-1-(2-(1H-tetrazol-1-yl)acetamido)ethyl)-3-((3S,5S)-5-((R)-2-(aminomethyl)morpholine-4-carbonyl)pyrrolidin-3-ylthio)-4-methyl-7-oxo-1-azabicyclo[3.2.0]hept-2-ene-2-carboxylic acid]
15 | 4 (≈ 6.76 µM) | 0.5 (≈ 0.845 µM) | 1 (≈ 1.69 µM) | 2 (≈ 3.38 µM) | C[C@@H](NC(=O)Cn1cnnn1)[C@H]1C(=O)N2C(C(=O)O)=C(S[C@@H]3CN[C@H](C(=O)N4CCC(CN)(CO)CC4)C3)[C@H](C)[C@H]12 [Example 463, (4R,5S,6R)-6-((R)-1-(2-(1H-tetrazol-1-yl)acetamido)ethyl)-3-((3S,5S)-5-(4-(aminomethyl)-4-(hydroxymethyl)piperidine-1-carbonyl)pyrrolidin-3-ylthio)-4-methyl-7-oxo-1-azabicyclo[3.2.0]hept-2-ene-2-carboxylic acid]
16 | 4 (≈ 7.3 µM) | 1 (≈ 1.83 µM) | 4 (≈ 7.3 µM) | 16 (≈ 29.2 µM) | C[C@@H](NC(=O)Cn1cnnn1)[C@H]1C(=O)N2C(C(=O)O)=C(S[C@@H]3CN[C@H](C(=O)N4CCC[C@H]4CN)C3)[C@H](C)[C@H]12 [Example 464, (4R,5S,6R)-6-((R)-1-(2-(1-tetrazol-1-yl)acetamido)ethyl)-3-((3S,5S)-5-((S)-2-(aminomethyl)pyrrolidine-1-carbooyl)pyrrolidin-3-ylthio)-4-methyl-7-oxo-1-azabicyclo[3.2.0]hept-2-ene-2-carboxylic acid]

— US11180504B2 (ORCHID PHARMA LTD., priority 2016, dated 2021)
